According to patent publication US20040038985A1, “Crystal forms of 1- [6-chloro-5-(trifluoromethly) -2-pyridinyl] piperazine hydrochloride” (priority 2000, published 2004):

Tests used:
[1] = Stability of crystal forms A and B in admixture with excipients (HPLC content after storage); assay type: physicochemical; settings: for content of Org 12962 remaining after storage, percentage of the initial amount: 14 days
Experimental: To each aliquot an excipient mentioned in Table II was added, followed by 10 μl of water, after which the suspensions were thoroughly mixed.
Aliquots of Org 12962 (5-10 mg) in crystal form B (100% form B) were weighed into roundbottomed tubes. To each aliquot an excipient mentioned in Table II was added, followed by 100 μl of water. Glass beads (250-300 mg) were added to each tube, after which the samples were thoroughly mixed for 1 minute. The residual water was evaporated in vacuo at room temperature. The tubes were stored in the dark for 14 days at either 20° C. or at 60° C. The samples were dissolved in 20.0 ml of a 70:30 mixture of 25 mM phosphate pH 2.6 buffer and acetonitrile. Dissolution was effected by keeping the tubes in a sonifier for 20 minutes.
Quantitative analysis of the amount of Org 12962 per tube was done by high performance liquid chromatography (hplc) using either of the following validated methods: (1) using a Symmetry Shield Reverse Phase RP 18 column (150×4.6 mm), which was operated at 40° C., using a flow rate of 1.0 ml/min, and as eluent a 69:31 (v/v) mixture of 25 mM phosphate buffer pH 2.6 buffer, also containing 15 mM octanesulphonic acid, and acetonitrile, or (2) using a Lichrospher 60 RP Select B column (125×4.0 mm), which was operated at ambient temperature, using a flow rate of 1.5 ml/min, and as eluent a 55:45 (v/v) mixture of methanol and water, also containing 5 mM octanesulphonic acid. The content of Org 12962 remaining in the samples after storage is given in Table II as the percentage (%) of the initial amount.

[2] = Thermodynamic stability / interconversion of crystal forms of Org 12962; assay type: physicochemical; settings: solid crystal forms of Org 12962 compared
[3] = admixture with Cornstarch (10 mg per 5.0 mg Org 12962), 20° C./dark
[4] = admixture with Cornstarch (10 mg per 5.0 mg Org 12962), 60° C./dark
[5] = admixture with HPC (2 mg per 5.0 mg Org 12962), 20° C./dark
[6] = admixture with HPMC (1.3 mg per 5.0 mg Org 12962), 20° C./dark
[7] = admixture with HPMC (1.3 mg per 5.0 mg Org 12962), 60° C./dark
[8] = admixture with Lactose (80 mg per 5.0 mg Org 12962), 20° C./dark
[9] = admixture with Lactose (80 mg per 5.0 mg Org 12962), 60° C./dark
[10] = admixture with Mg-stearate (0.5 mg per 5.0 mg Org 12962), 20° C./dark
[11] = admixture with Mg-stearate (0.5 mg per 5.0 mg Org 12962), 60° C./dark
[12] = admixture with PEG 400 (0.3 mg per 5.0 mg Org 12962), 20° C./dark
[13] = admixture with PEG 400 (0.3 mg per 5.0 mg Org 12962), 60° C./dark
[14] = admixture with Primojel (4 mg per 5.0 mg Org 12962), 20° C./dark
[15] = admixture with Primojel (4 mg per 5.0 mg Org 12962), 60° C./dark
[16] = admixture with Talc (0.3 mg per 5.0 mg Org 12962), 20° C./dark
[17] = admixture with Talc (0.3 mg per 5.0 mg Org 12962), 60° C./dark
[18] = admixture with Titanium dioxide (0.2 mg per 5.0 mg Org 12962), 20° C./dark
[19] = admixture with Titanium dioxide (0.2 mg per 5.0 mg Org 12962), 60° C./dark

Structure (SMILES) | content of Org 12962 remaining after storage, percentage of the initial amount [1, 3] [%] | content of Org 12962 remaining after storage, percentage of the initial amount [1, 4] [%] | content of Org 12962 remaining after storage, percentage of the initial amount [1, 5] [%] | content of Org 12962 remaining after storage, percentage of the initial amount [1, 6] [%] | content of Org 12962 remaining after storage, percentage of the initial amount [1, 7] [%] | content of Org 12962 remaining after storage, percentage of the initial amount [1, 8] [%] | content of Org 12962 remaining after storage, percentage of the initial amount [1, 9] [%] | content of Org 12962 remaining after storage, percentage of the initial amount [1, 10] [%] | content of Org 12962 remaining after storage, percentage of the initial amount [1, 11] [%] | content of Org 12962 remaining after storage, percentage of the initial amount [1, 12] [%] | content of Org 12962 remaining after storage, percentage of the initial amount [1, 13] [%] | content of Org 12962 remaining after storage, percentage of the initial amount [1, 14] [%] | content of Org 12962 remaining after storage, percentage of the initial amount [1, 15] [%] | content of Org 12962 remaining after storage, percentage of the initial amount [1, 16] [%] | content of Org 12962 remaining after storage, percentage of the initial amount [1, 17] [%] | content of Org 12962 remaining after storage, percentage of the initial amount [1, 18] [%] | content of Org 12962 remaining after storage, percentage of the initial amount [1, 19] [%] | other results
Cl.FC(F)(F)c1ccc(N2CCNCC2)nc1Cl [I, 1-[6-Chloro-5-(trifluoromethyl)-2-pyridinyl]piperazine.hydrochloride] | 100.0 | 82.6 | 98.0 | 95.0 | 91.8 | 94.5 | 91.2 | 97.9 | 93.8 | 96.5 | 92.5 | 95.0 | 94.6 | 99.2 | 94.5 | 96.0 | 97.5 | –
Cl.FC(F)(F)c1ccc(N2CCNCC2)nc1Cl [II, 1-[6-Chloro-5-(trifluoromethyl)-2-pyridinyl]piperazine.hydrochloride] | 100.1 | 97.9 | 100.0 | 100.0 | 97.8 | 99.6 | 97.4 | 99.9 | 97.9 | 99.8 | 96.3 | 100.0 | 96.0 | 99.9 | 100.1 | 99.8 | 92.9 | content of Org 12962 remaining after storage, percentage of the initial amount ([1]; admixture with HPC (2 mg per 5.0 mg Org 12962), 60° C./dark): 96.5%; stability in admixture with pharmaceutical excipients, compared with crystal form A ([1]; stored in the dark, especially notable at 60° C. with lactose and cornstarch): more stable; thermodynamic stability of the crystal form ([2]; listed as crystal form B): thermodynamically most stable form
Cl.FC(F)(F)c1ccc(N2CCNCC2)nc1Cl [form C, 1-[6-Chloro-5-(trifluoromethyl)-2-pyridinyl]piperazine.hydrochloride] | – | – | – | – | – | – | – | – | – | – | – | – | – | – | – | – | – | thermodynamic stability of the crystal form [2]: spontaneously converts to form B, even at −20 °C
